Experimental data from patent US20260130395A1, “Water Dispersible Botanical Compositions” (Aquila Black Limited, priority 2021, published 2026).

Experiment: Stability of cannabinoid compounds and Vitamin E components in Beverage 2 (AB Red) by LCMSMS
Assay type: physicochemical

Measured: Stability of Plant-Derived Cannabinoid Compounds in AB Red

C=C(C)[C@@H]1CCC(C)=C[C@H]1c1c(O)cc(CCCCC)c(C(=O)O)c1O [CBDA, cannabidiolic acid]
1.68 µg/mL: stored at 8° C., 0 days | stored at 8° C., 8 days | stored at 8° C., 12 days | stored at 8° C., 19 days | stored at 8° C., 90 days | stored at 21-25° C., 0 days | stored at 21-25° C., 30 days
1.58 µg/mL: stored at 21-25° C., 150 days | stored at 21-25° C., 300 days | stored at 21-25° C., 360 days
1.65 µg/mL: stored at 8° C., 9 days | stored at 8° C., 11 days | stored at 8° C., 18 days | stored at 8° C., 120 days | stored at 8° C., 210 days | stored at 8° C., 300 days | stored at 21-25° C., 2 days | stored at 21-25° C., 18 days | stored at 21-25° C., 24 days | stored at 21-25° C., 270 days | stored at 21-25° C., 330 days
1.60 µg/mL: stored at 8° C., 180 days | stored at 8° C., 330 days | stored at 8° C., 480 days | stored at 21-25° C., 90 days | stored at 21-25° C., 240 days
1.62 µg/mL: stored at 8° C., 360 days | stored at 21-25° C., 29 days
1.55 µg/mL: stored at 8° C., 510 days | stored at 8° C., 540 days
1.66 µg/mL: stored at 8° C., 2 days | stored at 8° C., 29 days | stored at 8° C., 60 days | stored at 8° C., 150 days | stored at 8° C., 240 days | stored at 21-25° C., 22 days
1.56 µg/mL: stored at 21-25° C., 510 days
1.70 µg/mL: stored at 8° C., 22 days | stored at 8° C., 24 days | stored at 8° C., 30 days | stored at 21-25° C., 1 days | stored at 21-25° C., 12 days | stored at 21-25° C., 19 days
1.59 µg/mL: stored at 21-25° C., 60 days | stored at 21-25° C., 420 days
1.61 µg/mL: stored at 21-25° C., 10 days | stored at 21-25° C., 390 days
1.67 µg/mL: stored at 8° C., 5 days | stored at 8° C., 10 days | stored at 8° C., 15 days | stored at 21-25° C., 16 days | stored at 21-25° C., 26 days
1.69 µg/mL: stored at 8° C., 1 days | stored at 8° C., 16 days | stored at 21-25° C., 5 days
1.63 µg/mL: stored at 8° C., 23 days | stored at 8° C., 25 days | stored at 8° C., 26 days | stored at 8° C., 270 days | stored at 8° C., 390 days | stored at 8° C., 420 days | stored at 8° C., 450 days | stored at 21-25° C., 9 days | stored at 21-25° C., 17 days | stored at 21-25° C., 23 days
1.54 µg/mL: stored at 8° C., 570 days | stored at 21-25° C., 570 days
1.64 µg/mL: stored at 8° C., 3 days | stored at 8° C., 17 days | stored at 21-25° C., 3 days | stored at 21-25° C., 8 days | stored at 21-25° C., 11 days | stored at 21-25° C., 15 days | stored at 21-25° C., 25 days | stored at 21-25° C., 120 days | stored at 21-25° C., 180 days | stored at 21-25° C., 210 days
1.57 µg/mL: stored at 21-25° C., 450 days | stored at 21-25° C., 480 days | stored at 21-25° C., 540 days
